This passage reports IC50 and Ratio IC50 results from ChEMBL document CHEMBL1817595, “Design, synthesis, biological evaluation and X-ray crystal structure of novel classical 6,5,6-tricyclic benzo[4,5]thieno[2,3-d]pyrimidines as dual thymidylate synthase and dihydrofolate reductase inhibitors” (Bioorg Med Chem, 2011).

Test [1] addresses T1, Thymidylate synthase (EC 2.1.1.45) (TS) (TSase) (Escherichia coli, UniProt E2QDN0).
T1 sequence (E2QDN0 whole entry): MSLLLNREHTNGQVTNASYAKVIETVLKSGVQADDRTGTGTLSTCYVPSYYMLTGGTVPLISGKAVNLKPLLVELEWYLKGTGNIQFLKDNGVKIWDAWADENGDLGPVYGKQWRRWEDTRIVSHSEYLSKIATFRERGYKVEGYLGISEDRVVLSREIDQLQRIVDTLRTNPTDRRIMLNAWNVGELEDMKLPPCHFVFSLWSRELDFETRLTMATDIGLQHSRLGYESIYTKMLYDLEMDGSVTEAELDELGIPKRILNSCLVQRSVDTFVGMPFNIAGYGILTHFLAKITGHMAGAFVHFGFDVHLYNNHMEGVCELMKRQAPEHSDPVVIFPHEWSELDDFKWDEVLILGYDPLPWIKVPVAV
Description: Inhibition of Escherichia coli TS assessed as oxidation of tetrahydrofolate to dihydrofolate after 2 to 12 mins by spectrophotometry.

The target in test [2] is T2, Dihydrofolate reductase (Homo sapiens, UniProt P00374).
T2 sequence (P00374 whole entry): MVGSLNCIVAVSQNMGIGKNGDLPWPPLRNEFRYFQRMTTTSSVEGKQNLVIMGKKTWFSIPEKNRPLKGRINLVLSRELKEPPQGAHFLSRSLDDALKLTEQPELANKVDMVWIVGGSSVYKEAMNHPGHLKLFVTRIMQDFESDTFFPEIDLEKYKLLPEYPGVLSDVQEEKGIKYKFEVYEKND
Description: Inhibition of human DHFR by spectrophotometry.

Test [3] concerns the target T3, Thymidylate synthase (Homo sapiens, UniProt P04818). The test can be described thus: Ratio of premetrexed IC50 to compound IC50 for human TS.
Target sequence in this assay (P04818 2-313 limits assumed): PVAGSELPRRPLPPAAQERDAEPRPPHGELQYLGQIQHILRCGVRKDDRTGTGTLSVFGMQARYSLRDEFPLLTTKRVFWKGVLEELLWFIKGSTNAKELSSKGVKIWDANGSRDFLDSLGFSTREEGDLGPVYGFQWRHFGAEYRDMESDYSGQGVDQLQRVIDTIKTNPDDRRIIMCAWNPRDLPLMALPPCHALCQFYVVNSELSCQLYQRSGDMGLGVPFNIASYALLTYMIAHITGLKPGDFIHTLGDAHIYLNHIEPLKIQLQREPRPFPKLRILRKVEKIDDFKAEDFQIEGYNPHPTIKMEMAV
For test [4], the target named is T4, Bifunctional dihydrofolate reductase-thymidylate synthase (Toxoplasma gondii, UniProt Q07422).
T4 sequence (Q07422 whole entry): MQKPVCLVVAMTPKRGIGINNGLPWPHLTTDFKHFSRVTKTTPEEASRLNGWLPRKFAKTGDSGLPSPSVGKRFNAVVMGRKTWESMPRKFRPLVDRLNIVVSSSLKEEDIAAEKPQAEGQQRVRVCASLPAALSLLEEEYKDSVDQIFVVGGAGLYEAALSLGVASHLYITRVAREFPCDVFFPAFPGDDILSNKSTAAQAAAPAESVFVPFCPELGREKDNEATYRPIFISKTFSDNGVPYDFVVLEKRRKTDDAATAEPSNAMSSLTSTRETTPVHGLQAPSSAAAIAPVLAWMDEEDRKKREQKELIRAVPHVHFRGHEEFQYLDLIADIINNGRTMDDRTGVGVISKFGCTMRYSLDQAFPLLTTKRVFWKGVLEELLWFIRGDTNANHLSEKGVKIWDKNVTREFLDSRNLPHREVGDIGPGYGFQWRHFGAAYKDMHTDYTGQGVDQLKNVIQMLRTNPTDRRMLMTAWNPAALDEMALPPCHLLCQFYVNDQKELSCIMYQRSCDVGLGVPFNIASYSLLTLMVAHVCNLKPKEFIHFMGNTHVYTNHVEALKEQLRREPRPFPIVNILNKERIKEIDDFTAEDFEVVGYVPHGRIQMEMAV
The test can be described thus: Inhibition of Toxoplasma gondii TS assessed as oxidation of tetrahydrofolate to dihydrofolate after 2 to 12 mins by spectrophotometry.

Test [5] addresses T3, Thymidylate synthase. Description: Inhibition of human TS assessed as oxidation of tetrahydrofolate to dihydrofolate after 2 to 12 mins by spectrophotometry.
Target sequence in this assay (P04818 whole entry): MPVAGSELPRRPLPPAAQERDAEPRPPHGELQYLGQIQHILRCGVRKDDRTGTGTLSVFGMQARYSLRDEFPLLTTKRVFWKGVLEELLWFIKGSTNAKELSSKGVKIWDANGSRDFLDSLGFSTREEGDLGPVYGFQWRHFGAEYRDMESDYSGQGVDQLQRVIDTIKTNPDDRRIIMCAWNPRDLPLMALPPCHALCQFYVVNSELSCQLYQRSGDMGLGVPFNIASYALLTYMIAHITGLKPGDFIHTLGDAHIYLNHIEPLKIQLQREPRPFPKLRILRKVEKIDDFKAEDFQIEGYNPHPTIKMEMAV
For test [6], the target named is T4, Bifunctional dihydrofolate reductase-thymidylate synthase. The test can be described thus: Inhibition of Toxoplasma gondii DHFR by spectrophotometry.
Test [7] concerns the target T5, Dihydrofolate reductase (Escherichia coli, UniProt P0ABQ4).
T5 sequence (P0ABQ4 whole entry): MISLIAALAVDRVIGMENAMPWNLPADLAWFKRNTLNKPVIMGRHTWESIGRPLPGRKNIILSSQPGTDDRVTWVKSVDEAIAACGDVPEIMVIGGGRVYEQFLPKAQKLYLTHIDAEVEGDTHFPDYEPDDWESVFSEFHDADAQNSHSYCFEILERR
Description: Inhibition of Escherichia coli DHFR by spectrophotometry.

Regarding `Nc1nc2sc3cccc(CNc4ccc5c(c4)CN([C@@H](CCC(=O)O)C(=O)O)C5=O)c3c2c(=O)[nH]1`, the IC50 in test [1] worked out at 50 nM; in test [2], 100 nM; in test [4], 170 nM; in test [5], 34 nM; in test [6] it was 10 nM; in test [7], 400 nM. For the same molecule, in test [3], the Ratio IC50 stood at 50.
Consider `Cc1[nH]c2nc(N)[nH]c(=O)c2c1Sc1ccc(C(=O)N[C@@H](CCC(=O)O)C(=O)O)cc1`, for which the concentration for half-maximal inhibition (IC50) in test [4] was 90 nM; in test [6], 230 nM; in test [7], 22000 nM.
As for `Nc1nc2[nH]cc(CCc3ccc(C(=O)N[C@@H](CCC(=O)O)C(=O)O)cc3)c2c(=O)[nH]1` [PEMETREXED], the 50% inhibitory concentration (IC50) in test [1] was found to be 76000 nM.
For `Cc1nc2sc3cccc(CNc4ccc(C(=O)N[C@@H](CCC(=O)O)C(=O)O)cc4)c3c2c(=O)[nH]1`, the IC50 in test [1] was 820 nM; in test [2] it was over 20000 nM; in test [4] it was 1700 nM; in test [5], 260 nM; in test [6], 1400 nM; in test [7], 15000 nM. Moreover, the Ratio IC50 in test [3] turned out to be 50.
In the case of `Cc1nc2sc3cccc(CNc4ccc5c(c4)CN([C@@H](CCC(=O)O)C(=O)O)C5=O)c3c2c(=O)[nH]1`, the concentration for half-maximal inhibition (IC50) is 850 nM in test [1]; over 20000 nM in test [2]; 3700 nM in test [4]; 800 nM in test [5]; 1800 nM in test [6]; over 20000 nM in test [7]. Besides, in test [3], the Ratio IC50 is 50.
In the case of `Cc1nc2ccc3ccc(CNc4ccc5c(c4)CN([C@@H](CCC(=O)O)C(=O)O)C5=O)cc3c2c(=O)[nH]1` [OSI-7904], the IC50 was 23 nM in test [1]; over 20000 nM in test [2]; 27 nM in test [4]; 710 nM in test [6]; 20000 nM in test [7].
Consider `Nc1nc2sc3cccc(CNc4ccc(C(=O)N[C@@H](CCC(=O)O)C(=O)O)cc4)c3c2c(=O)[nH]1`, for which the concentration for half-maximal inhibition (IC50) came to 17 nM in test [1]; 90 nM in test [2]; 140 nM in test [4]; 68 nM in test [5]; 20 nM in test [6]; 400 nM in test [7]. Moreover, the Ratio IC50 in test [3] came to 50.
